Measured values as given in US20120171123A1, “USES AND COMPOSITIONS FOR TREATMENT OF RHEUMATOID ARTHRITIS” (priority 2006, published 2012).

Tested on: patients with active rheumatoid arthritis
Assay: Study A: tender and swollen joint count (TJC28/SJC28)
Assay type: in vivo, human
Details: for Change in SJC, mean change from baseline / Change in TJC, mean change from baseline / SJC = 0 / TJC = 0: 12 weeks
Method: Swollen and tender joints are the most characteristic features of RA, as disease severity is directly related to the number of swollen and tender joints. Counting swollen and tender joints is a key component of the clinical assessment of RA. Tender joint count (TJC) is an assessment of 28 or more joints where several different aspects of tenderness are assessed by pressure and joint manipulation on physical examination. Swollen joint count (SJC): an assessment of 28 or more joints where joints are classified as either swollen or not swollen. For TJC and SJC scoring see Fuchs and Pincus, Arthritis Rheum 37:470-475, 1994; Arthritis Rheum 37:463-464, 1994).
The study design included a 12 week open label treatment period followed by a continuation period examining safety and efficacy. […] The main inclusion criteria for the study were the following: males and females ≧18 years; rheumatoid arthritis (RA; defined by ACR criteria) for ≧3 months; unsatisfactory response (or intolerance) to at least one prior DMARD; and patients with active RA (DAS28≧3.2). Baseline demographics and disease severity is shown below in Table 1:
Efficacy of adalimumab treatment was determined by examining signs and symptoms of the patients. Various assays were used to determine efficacy, including ACR response, EULAR response, TJC and SJC count, and DAS28.
The objective of this study was to evaluate the impact of prior biologic therapies, in particular TNF-antagonists etanercept (ETA) and infliximab (INF), on key efficacy parameters of adalimumab therapy in patients with long-standing RA in clinical practice. To evaluate the impact of prior biological therapies, patients with moderate to severe RA enrolled at 450 sites in 11 European countries plus Australia (Study A). Patients with moderate to severe RA and an inadequate response to prior DMARD therapies were enrolled in a 12-week open-label study with an optional extension phase. […] Patients with previous biologic treatment must have received the last administration at least 8 weeks before enrollment Routine safety and efficacy data were collected at weeks 2, 6, and 12, and every 8 weeks in the extension phase. Efficacy parameters included ACR20, ACR50, ACR70, EULAR Response, HAQ, tender and swollen joint count (TJC28/SJC28), and DAS28. […] For this interim analysis, efficacy outcomes were evaluated after 12 weeks of therapy per the number and type of prior biologics used: None, any (ETA, INF, anakinra), ETA only, INF only, or ETA and INF but not anakinra.
Patients with long-standing, moderate to severe RA were enrolled in Study A at 450 sites in 12 different countries. The study design for Study A is outlined in FIG. 21. […] Previous treatment with other biologics was allowed up to 8 weeks before enrollment. Patients met the following inclusion criteria: Age ≧18 years; RA (defined by American College of Rheumatology criteria) for ≧3 months; active, moderate to severe RA (Disease Activity Score (DAS28)≧3.2); unsatisfactory response or intolerance to at least one prior DMARD, including biologics. Efficacy assessments were performed at weeks 0 (baseline), 2, 6, and 12. The key outcomes measured were: change in DAS28; EULAR responses; ACR20, ACR50, ACR70 responses; changes in Tender Joint Count (TJC) and Swollen Joint Count (SJC); and change in Health Assessment Questionnaire (HAQ).

[1] = prior biologic: ETA + INF (n=78)
[2] = Week 12, concomitant LEF only (n=557)
[3] = Week 12, concomitant MTX + LEF (n=123)
[4] = Week 12, concomitant MTX only (n=1561)
[5] = Week 12, concomitant QC/HQC (n=85)
[6] = Week 12, concomitant SSZ only (n=89)
[7] = Wk 12, concomitant MTX Im 15 mg (N=76), no other DMARD
[8] = Wk 12, concomitant MTX Iv 15 mg (N=23), no other DMARD
[9] = Wk 12, concomitant MTX Sc 15 mg (N=37), no other DMARD
[10] = Wk 12, concomitant MTX oral 15 mg (N=405), no other DMARD
[11] = Wk 12, concomitant MTX oral ≦7.5 (N=127), no other DMARD
[12] = Wk 12, concomitant MTX oral ≧20 mg (N=216), no other DMARD
[13] = week 12, prior biologic: ETA + INF

adalimumab: human anti-TNF mAb (HUMIRA, Abbott Laboratories), described in U.S. Pat. No. 6,090,382 as D2E7
Change in SJC, mean change from baseline (all pts in Study A (n=4241)): −6
Change in TJC, mean change from baseline (all pts in Study A (n=4241)): −8
SJC = 0 (all pts in Study A (n=4241)): 24%
TJC = 0 (all pts in Study A (n=4241)): 21%
Change in SJC, mean change from baseline (prior biologic: Any (n=688)): −6
Change in TJC, mean change from baseline (prior biologic: Any (n=688)): −8
SJC = 0 (prior biologic: Any (n=688)): 18%
TJC = 0 (prior biologic: Any (n=688)): 16%
Change in SJC, mean change from baseline (prior biologic: ETA (n=114)): −7
Change in TJC, mean change from baseline (prior biologic: ETA (n=114)): −8
SJC = 0 (prior biologic: ETA (n=114)): 21%
TJC = 0 (prior biologic: ETA (n=114)): 16%
Change in SJC, mean change from baseline [1]: −5
Change in TJC, mean change from baseline [1]: −7
SJC = 0 [1]: 7%
TJC = 0 [1]: 10%
Change in SJC, mean change from baseline (prior biologic: INF (n=358)): −6
Change in TJC, mean change from baseline (prior biologic: INF (n=358)): −8
SJC = 0 (prior biologic: INF (n=358)): 22%
TJC = 0 (prior biologic: INF (n=358)): 17%
Change in SJC, mean change from baseline (prior biologic: None (n=3553)): −7
Change in TJC, mean change from baseline (prior biologic: None (n=3553)): −8
SJC = 0 (prior biologic: None (n=3553)): 25%
TJC = 0 (prior biologic: None (n=3553)): 22%
Change in SJC (0-28), mean change from baseline [2]: −6
Change in TJC (0-28), mean change from baseline [2]: −8
Change in SJC (0-28), mean change from baseline [3]: −8
Change in TJC (0-28), mean change from baseline [3]: −10
Change in SJC (0-28), mean change from baseline (Week 12, concomitant MTX + SSZ): −7
Change in TJC (0-28), mean change from baseline (Week 12, concomitant MTX + SSZ): −8
Change in SJC (0-28), mean change from baseline [4]: −7
Change in TJC (0-28), mean change from baseline [4]: −8
Change in SJC (0-28), mean change from baseline [5]: −7
Change in TJC (0-28), mean change from baseline [5]: −9
Change in SJC (0-28), mean change from baseline [6]: −6
Change in TJC (0-28), mean change from baseline [6]: −7
Change in SJC (0-28), mean change from baseline [7]: −6
Change in TJC (0-28), mean change from baseline [7]: −8
Change in SJC (0-28), mean change from baseline [8]: −7
Change in TJC (0-28), mean change from baseline [8]: −11
Change in SJC (0-28), mean change from baseline [9]: −7
Change in TJC (0-28), mean change from baseline [9]: −10
Change in SJC (0-28), mean change from baseline [10]: −6
Change in TJC (0-28), mean change from baseline [10]: −8
Change in SJC (0-28), mean change from baseline [11]: −7
Change in TJC (0-28), mean change from baseline [11]: −8
Change in SJC (0-28), mean change from baseline [12]: −7
Change in TJC (0-28), mean change from baseline [12]: −9
patients achieving SJC=0 (week 12): 25%
patients achieving TJC=0 (week 12): 23%
SJC (0-28) mean change from baseline (week 12, 1 prior biologic): −6.4
TJC (0-28) mean change from baseline (week 12, 1 prior biologic): −8.0
SJC (0-28) mean change from baseline (week 12, 2 prior biologics): −6.9
TJC (0-28) mean change from baseline (week 12, 2 prior biologics): −8.1
SJC (0-28) mean change from baseline (week 12, 3 prior biologics): −6.6
TJC (0-28) mean change from baseline (week 12, 3 prior biologics): −11.3
reduction in SJC28 (week 12, median): ~70%
reduction in TJC28 (week 12, median): ~77%
SJC (0-28) mean change from baseline (week 12, no prior biologic): −6.4
TJC (0-28) mean change from baseline (week 12, no prior biologic): −8.1
SJC (0-28) mean change from baseline (week 12, prior etanercept only): −6.6
TJC (0-28) mean change from baseline (week 12, prior etanercept only): −8.4
SJC (0-28) mean change from baseline (week 12, prior infliximab only): −6.8
TJC (0-28) mean change from baseline (week 12, prior infliximab only): −7.8
Median TJC reduction (week 12, prior biologic: Any): −8
Mediant SJC reduction (week 12, prior biologic: Any): −6
Median TJC reduction (week 12, prior biologic: ETA): −8
Mediant SJC reduction (week 12, prior biologic: ETA): −7
Median TJC reduction [13]: −7
Mediant SJC reduction [13]: −5
Median TJC reduction (week 12, prior biologic: INF): −8
Mediant SJC reduction (week 12, prior biologic: INF): −6
Median TJC reduction (week 12, prior biologic: None): −8
Mediant SJC reduction (week 12, prior biologic: None): −7
